Patent US12129238B2, “Crystalline form of propoxazepam, the method of its making and use as medicinal agent” (priority 2018, dated 2024)

How the values were obtained:
Assay type in all cases: in vivo
mice [1] = experiment: Model of acetic acid-induced pain (cramps) on mice; details: 0.75% acetic acid i.p. 2 hours after test compound, cramps counted 1st to 20th minute
Experimental: To reproduce acute visceral and somatic deep pain (nociceptive pain), the method of “acetic acid-induced pain (cramps)” was used in mice. The mice received a 0.75% solution of acetic acid intraperitoneally (at a dose of 0.1 ml/10 g of body weight), 2 hours after the administration of the test compounds. The number of cramps was counted from the first to the 20th minute (inclusive) after modeling the pathological state. The calculation of ED50 (the average effective dose of analgesic activity in this model for mice) was carried out using the least squares method.
Two samples of compound (I) were prepared and used in the ‘tail-flick’ test: • The first sample is a dispersed sample of Form I. This was prepared by adding a hot (65° C.) saturated solution of Comparative Example 1 (Form I) in ethyl alcohol to water at room temperature (about 20° C.) and atmospheric pressure (about 101.325 KPa). Dispersed Form I has a particle size (D(50)) of around 29 μm. • The second sample is a dispersed sample of Inventive Example 1, i.e. compound (I) in crystalline Form II. This sample is prepared by was dispersing Inventive Example 1 in a saline solution stabilized with Tween-80. The crystalline structure remains unchanged. Dispersed Form II has a particle size (D(50)) of around 24.3 μm.

mice [2] = experiment: Determination of the mean lethal dose (LD50), oral administration to mice; details: stabilized suspension in isotonic sodium chloride solution, 14 days observation
Description: (§1) The preliminary assignment of a substance to a certain toxicity class is based on an indicator that quantitatively characterizes the acute toxicity of the compound—the dose of the substance that causes a lethal effect in 50% of the population (LD50). Determination of this indicator in one of the types of experimental animals allows to extrapolate it for other species and justify the dose limits for the first phase of clinical trials.
(§2) To calculate the average dose, mortality/survival rates of the animals by the end of the observation period were used.

rats = experiment: Model of thermal nociception (tail flick test) on rats; details: rat tail-flick, latency 2 hours after administration, dispersed in saline with Tween 80
Experimental: Antinociceptive (analgesic) activity was evaluated on a rat tail “tail-flick” model using a focused light beam on rats. Latency time was determined by tail pulling away from the beam source, expressed in seconds. Animals were randomized with respect to the initial value of the latent period, with index from 4 to 12 seconds. The magnitude of the antinociceptive effect was indicated by the increasing of the length of the latent period (pain sensitivity threshold, PST). The initial indices of the PST and its changes 2 hours after the administration of the test compound were compared. The calculation of ED50 (the average effective dose of analgesic activity in this model for rats) was carried out using the least squares method.
Three samples of compound (I) were prepared and used in the ‘tail-flick’ test: • The first sample is prepared using the sample of Comparative Example 1, i.e. Form I, in its natural coarse crystalline state. In particular, the coarse crystalline sample of Comparative Example 1 is dispersed in a saline solution and stabilized with Tween 80). The crystalline structure (Form I) remains unchanged. • The second sample was prepared by micronizing (mechanically grinding) the coarse crystalline sample of Comparative Example 1, in order to prepare a sample of Form I having a smaller average particle size. In particular, the micronized sample is dispersed in a saline solution and stabilized with Tween 80). The crystalline structure (Form I) remains unchanged. • The third sample is a dispersed sample of Inventive Example 1, i.e. compound (I) in crystalline Form II. In particular, a sample of Inventive Example 1 is dispersed in a saline solution and stabilized with Tween 80). The crystalline structure (Form II) remains unchanged. The third sample has a similar average particle size to the second sample for a side-by-side comparison.

[3] = Determination of the mean lethal dose (LD50), oral administration to mice; details: mouse, in vivo, po, stabilized suspension in isotonic sodium chloride solution, 14 days observation
Description: as §1, §2

Structure (SMILES) | ED50 (Average effective dose (50%)) (mice [1]; listed as Dispersed Form II) [mg/kg] | LD50 (mean lethal dose) (mice [2]) [mg/kg] | ED50 (Average effective dose (50%)) (rats) [mg/kg] | ED50 (Average effective dose (50%)) (mice [1]; listed as Dispersed Form I) [mg/kg] | LD50 at 14 days [3] [mg/kg] | ED50 (Average effective dose (50%)) (rats; listed as Form I (coarse crystalline)) [mg/kg] | ED50 (Average effective dose (50%)) (rats; listed as Form I (micronized)) [mg/kg]
CCCOC1N=C(c2ccccc2Cl)c2cc(Br)ccc2NC1=O (stereo not shown) [Form II, 7-Bromo-3-propoxy-5-(2-chlorophenyl)-1,3-dihydrobenzo-[e]-[1,4]-diazepin-2-one] | 0.89 | 1475 ± 402 | 0.17 | – | – | – | –
CCCOC1N=C(c2ccccc2Cl)c2cc(Br)ccc2NC1=O (stereo not shown) [Form I, 7-Bromo-3-propoxy-5-(2-chlorophenyl)-1,3-dihydrobenzo-[e]-[1,4]-diazepin-2-one] | – | – | – | 1.87 | 1120 ± 190 | 1.82 | 1.06
